Laboratory results taken from ChEMBL document CHEMBL1146668, “1,2-Benzothiazine 1,1-dioxide alpha-ketoamide analogues as potent calpain I inhibitors” (Bioorg Med Chem Lett, 2004).

What was measured:
[1] = biological target: T1, Calpain-1 catalytic subunit (Homo sapiens, UniProt P07384); test: In vitro inhibitory activity against recombinant human calpain 1
T1 sequence (P07384 whole entry): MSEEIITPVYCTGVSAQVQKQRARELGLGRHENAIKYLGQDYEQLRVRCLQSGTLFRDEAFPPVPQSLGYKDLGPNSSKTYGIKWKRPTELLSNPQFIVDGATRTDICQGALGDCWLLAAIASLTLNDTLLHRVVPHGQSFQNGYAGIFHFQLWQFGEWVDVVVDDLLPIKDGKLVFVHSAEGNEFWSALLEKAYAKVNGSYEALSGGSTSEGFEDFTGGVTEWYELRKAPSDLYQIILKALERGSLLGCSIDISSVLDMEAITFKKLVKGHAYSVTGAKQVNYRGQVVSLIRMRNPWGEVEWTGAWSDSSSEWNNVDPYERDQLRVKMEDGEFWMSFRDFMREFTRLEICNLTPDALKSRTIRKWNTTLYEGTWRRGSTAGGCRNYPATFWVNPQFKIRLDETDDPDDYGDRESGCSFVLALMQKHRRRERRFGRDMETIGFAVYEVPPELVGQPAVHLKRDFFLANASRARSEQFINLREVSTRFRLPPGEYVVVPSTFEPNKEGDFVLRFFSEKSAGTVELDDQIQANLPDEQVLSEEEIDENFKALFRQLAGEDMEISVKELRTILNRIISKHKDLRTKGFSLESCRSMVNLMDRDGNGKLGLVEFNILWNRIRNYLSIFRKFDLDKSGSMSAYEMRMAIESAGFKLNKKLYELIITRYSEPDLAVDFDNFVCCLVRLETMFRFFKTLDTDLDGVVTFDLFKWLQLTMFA

[2] = biological target: T1, Calpain-1 catalytic subunit; test: In vitro inhibitory activity against human calpain 1 in Molt-4 cells (intact human T-cell leukemia cell line); format: cell-based
Cathepsin B [3] = biological target: T2, Cathepsin B (Homo sapiens, UniProt P07858); test: Inhibitory activity against cathepsin B
Chymotrypsinogen B = Chymotrypsinogen B (Homo sapiens, UniProt P17538); test: Inhibitory activity against chymotrypsinogen; Range 1-10 uM
Sequence of Chymotrypsinogen B (P17538 34-164 limits assumed, other chains not shown): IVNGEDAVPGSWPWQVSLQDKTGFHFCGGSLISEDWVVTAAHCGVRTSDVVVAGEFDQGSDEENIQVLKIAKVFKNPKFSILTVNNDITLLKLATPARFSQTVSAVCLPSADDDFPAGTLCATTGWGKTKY
Sequence of Chymotrypsinogen B (P17538 167-263 limits assumed, other chains not shown): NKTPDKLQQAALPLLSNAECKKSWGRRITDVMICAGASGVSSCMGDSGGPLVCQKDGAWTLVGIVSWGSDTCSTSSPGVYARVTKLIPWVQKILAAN

[4] = biological target: T1, Calpain-1 catalytic subunit; test: In vitro inhibitory activity against human calpain I; Not determined
Cathepsin B [5] = biological target: T2, Cathepsin B; test: Inhibitory activity against cathepsin B; In active

Compound	IC50 [1] [nM]	also measured
CCN1C(C(=O)N[C@@H](Cc2ccccc2)C(=O)C(=O)NCc2ccncc2)Cc2cc3c(cc2S1(=O)=O)OCCO3 (some centres undefined)	240	
CCNC(=O)C(=O)[C@H](Cc1ccccc1)NC(=O)C1Cc2cc(Cl)ccc2S(=O)(=O)N1CC (some centres undefined)	1000	
CCN1C(C(=O)N[C@@H](Cc2ccccc2)C(=O)C(=O)NCCCNS(=O)(=O)c2ccccc2)Cc2cc3c(cc2S1(=O)=O)OCCO3 (some centres undefined)		IC50 [2]: 2700 nM
CCN1C(C(=O)N[C@@H](Cc2ccccc2)C(=O)C(=O)NCCNS(=O)(=O)c2ccc(-c3ccccn3)s2)Cc2cc3c(cc2S1(=O)=O)OCCO3 (some centres undefined)		IC50 (Cathepsin B [3]): Not Active; IC50 (Chymotrypsinogen B): > 10000 nM; IC50 [2]: 1300 nM
CCN1C(C(=O)N[C@@H](Cc2ccccc2)C(=O)C(=O)NCCCNS(=O)(=O)c2ccc([N+](=O)[O-])cc2)Cc2cc3c(cc2S1(=O)=O)OCCO3 (some centres undefined)		IC50 [2]: 3600 nM
CCN1C(C(=O)N[C@@H](Cc2ccccc2)C(=O)C(=O)NCCNS(=O)(=O)c2ccc([N+](=O)[O-])cc2)Cc2cc3c(cc2S1(=O)=O)OCCO3 (some centres undefined)		IC50 [2]: 4200 nM
CCN1C(C(=O)N[C@@H](Cc2ccccc2)C(=O)C(=O)NCCNS(=O)(=O)c2ccc(F)cc2)Cc2cc3c(cc2S1(=O)=O)OCCO3 (some centres undefined)		IC50 [2]: 2000 nM
CCN1C(C(=O)N[C@H](C=O)Cc2ccccc2)Cc2cc(Cl)ccc2S1(=O)=O (some centres undefined)		IC50 [4]: 5 nM
O=C[C@H](Cc1ccccc1)NC(=O)C1Cc2ccccc2S(=O)(=O)N1 (some centres undefined)	7	
CCN1C(C(=O)N[C@@H](Cc2ccccc2)C(=O)C(=O)NCc2ccccn2)Cc2cc3c(cc2S1(=O)=O)OCCO3 (some centres undefined)	170	
CCN1C(C(=O)N[C@@H](Cc2ccccc2)C(=O)C(=O)NCCCN2CCCC2=O)Cc2cc3c(cc2S1(=O)=O)OCCO3 (some centres undefined)	500	
CCN1C(C(=O)N[C@@H](Cc2ccccc2)C(=O)C(=O)NCCCN2CCOCC2)Cc2cc3c(cc2S1(=O)=O)OCCO3 (some centres undefined)	195	
CCN1C(C(=O)N[C@@H](Cc2ccccc2)C(=O)C(=O)NCCCNS(=O)(=O)c2ccc(F)cc2)Cc2cc3c(cc2S1(=O)=O)OCCO3 (some centres undefined)		IC50 [2]: 2400 nM
CCN1C(C(=O)N[C@@H](Cc2ccccc2)C(=O)C(=O)NCCNS(=O)(=O)c2ccccc2)Cc2cc3c(cc2S1(=O)=O)OCCO3 (some centres undefined)		IC50 (Cathepsin B [5]): Not Active; IC50 (Chymotrypsinogen B): > 10000 nM; IC50 [2]: 5000 nM
CCCCNC(=O)C(=O)[C@H](CC(C)C)NC(=O)C1Cc2cc3c(cc2S(=O)(=O)N1CC)OCCO3 (single isomer, unassigned; form 1)	500	
CCCCNC(=O)C(=O)[C@H](CC(C)C)NC(=O)C1Cc2cc3c(cc2S(=O)(=O)N1CC)OCCO3 (single isomer, unassigned; form 2)	1000	
CCCCNC(=O)C(=O)[C@H](Cc1ccccc1)NC(=O)C1Cc2cc3c(cc2S(=O)(=O)N1CC)OCCO3 (stereo in doubt)		IC50 (Cathepsin B [5]): Not Active; IC50 (Chymotrypsinogen B): > 10000 nM

Further lines, with some results ahead:

IC50 [1] [nM]	Compound	also measured
205	CCN1C(C(=O)N[C@@H](Cc2ccccc2)C(=O)C(=O)NC(C)C)Cc2cc3c(cc2S1(=O)=O)OCCO3 (some centres undefined)	
63	CCN1C(C(=O)N[C@@H](Cc2ccccc2)C(=O)C(=O)NCCc2ccccc2)Cc2cc3c(cc2S1(=O)=O)OCCO3 (some centres undefined)	
5000	CCN1C(C(=O)N[C@@H](Cc2ccccc2)C(=O)C(=O)NCCCn2ccnc2)Cc2cc3c(cc2S1(=O)=O)OCCO3 (some centres undefined)	
200	CCN1C(C(=O)N[C@@H](Cc2ccccc2)C(=O)C(=O)NCCOC)Cc2cc3c(cc2S1(=O)=O)OCCO3 (some centres undefined)	
200	C=CCNC(=O)C(=O)[C@H](Cc1ccccc1)NC(=O)C1Cc2cc3c(cc2S(=O)(=O)N1CC)OCCO3 (some centres undefined)	
150	CCCCCNC(=O)C(=O)[C@H](Cc1ccccc1)NC(=O)C1Cc2cc3c(cc2S(=O)(=O)N1CC)OCCO3 (some centres undefined)	
1000	CCN1C(C(=O)N[C@@H](Cc2ccccc2)C(=O)C(=O)OC)Cc2cc3c(cc2S1(=O)=O)OCCO3 (some centres undefined)	
